tested on: HBsAg in HepG2.2.15 cells; assay: HBsAg assay: inhibition of HBsAg in HepG2.2.15 cells (chemiluminescence immunoassay of supernatant); format: cell-based, hepatitis B virus; conditions: Hepatitis B virus, HepG2.2.15, 144 h, read-out: sAg EC50, HepG2.2.15 cells, supernatant collected at day 6 after exposure, HBsAg CLIA
Protocol: Inhibition of HBsAg was determined in HepG2.2.15 cells. Cells were maintained in culture medium containing 10% fetal calf serum, […], Glutamine, penicillin/streptomycin. Cells were seeded in 96-well collagen-coated plate at a density of 30,000 cells/well. Serially diluted compounds were added to cells next day at the final DMSO concentration of 0.5%. Cells were incubated with compounds for 2-3 days, after which medium was removed. Fresh medium containing compounds was added to cells for additional 3-4 days. At day 6 after exposure of compounds, supernatant was collected, the HBsAg immunoassay (microplate-based chemiluminescence immunoassay kits, CLIA, Autobio Diagnosics Co., Zhengzhou, China, Catalog #CL0310-2) was used to determine the level of HBsAg according to manufactory instruction. Dose-response curves were generated and the EC50 value (effective concentrations that achieved 50% inhibitory effect) were determined using XLfit software. In addition, cells were seeded at a density of 5,000 cells/well for determination of cell viability in the presence and absence of compounds by using CellTiter-Glo reagent (Promega).

Structure (SMILES) | EC50 [nM]
CCC1c2ccc(F)c(F)c2OCCN1c1ccnc(-c2ncccn2)n1 (stereo not drawn) [Example 126, 5-Ethyl-8,9-difluoro-4-(2-pyrimidin-2-ylpyrimidin-4-yl)-3,5-dihydro-2H-1,4-benzoxazepine] | 28000
Fc1cc2c(cc1F)CN(c1ccnc(-c3ncccn3)n1)CC2 [Example 17, 2-([2,2′-Bipyrimidin]-4-yl)-6,7-difluoro-1,2,3,4-tetrahydroisoquinoline] | 610
COc1cc2c(cc1OC)C1CCC2N1c1cnc(-c2ncccn2)nc1 [Example 84, 9-([2,2′-Bipyrimidin]-5-yl)-6,7-dimethoxy-1,2,3,4-tetrahydro-1,4-epiminonaphthalene] | 4000
CCC1c2cc(F)c(F)cc2CN1c1nc(-c2ncccn2)ncc1C (stereo not drawn) [Example 52, 1-Ethyl-5,6-difluoro-2-(5-methyl-[2,2′-bipyrimidin]-4-yl)isoindoline] | 43
CCC1c2ccccc2CCN1c1ccnc(-c2ncccn2)n1 (stereo not drawn) [Example 13, 2-([2,2′-Bipyrimidin]-4-yl)-1-ethyl-1,2,3,4-tetrahydroisoquinoline] | 500
CCC1c2cc(F)c(F)cc2CCN1c1cnc(-c2ncccn2)nc1 (stereo not drawn) [Example 25, 2-([2,2′-Bipyrimidin]-5-yl)-1-ethyl-6,7-difluoro-1,2,3,4-tetrahydroisoquinoline] | 85
CCC1c2cc(F)c(OC)cc2CCN1c1ccnc(-c2ncccn2)n1 (stereo not drawn) [Example 127, 2-(2,2′-Bipyrimidin-4-yl)-1-ethyl-7-fluoro-6-methoxy-1,2,3,4-tetrahydroisoquinoline] | 20
CC1c2ccccc2CCN1c1cnc(-c2ncccn2)nc1 (stereo not drawn) [Example 6, 1-Methyl-2-(2-pyrimidin-2-ylpyrimidin-5-yl)-3,4-dihydro-1H-isoquinoline] | 1400
CCC1c2cc(F)c(OC)cc2CN1c1cnc(C(=O)Nc2nccn2C)nc1 (stereo not drawn) [Example 105, 5-(1-Ethyl-6-fluoro-5-methoxyisoindolin-2-yl)-N-(1-methyl-1H-imidazol-2-yl)pyrimidine-2-carboxamide] | 6000
CCC1c2cc(F)c(OC)cc2CCN1c1ccnc(C(N)=O)n1 (stereo not drawn) [Example 120, 4-(1-Ethyl-7-fluoro-6-methoxy-3,4-dihydro-1H-isoquinolin-2-yl)pyrimidine-2-carboxamide] | 14000
c1cnc(-c2ncc(N3CC4CCC3c3ccccc34)cn2)nc1 (stereo not drawn) [Example 20, 10-([2,2′-Bipyrimidin]-5-yl)-1,2,3,4-tetrahydro-1,4-(epiminomethano) naphthalene] | 32000
Cc1cnc(-c2ncccn2)nc1N1CC2CCC1c1ccccc12 (stereo not drawn) [Example 81, 10-(5-Methyl-[2,2′-bipyrimidin]-4-yl)-1,2,3,4-tetrahydro-1,4-(epiminomethano)naphthalene] | 280
CCC1c2ccc(F)c(F)c2CCN1c1cc(=O)c(C(=O)O)c[nH]1 (stereo not drawn) [Example 112, 6-(1-Ethyl-5,6-difluoro-3,4-dihydro-1H-isoquinolin-2-yl)-4-hydroxy-pyridine-3-carboxylic Acid] | 11000
CC1CN(c2cnc(-c3ncccn3)nc2)C(=O)c2ccccc21 (stereo not drawn) [Example 16, 2-([2,2′-Bipyrimidin]-5 yl)-4-methyl-3,4-dihydroisoquinolin-1(2H)-one] | 9100
CCC1c2cc(OC)c(OC)cc2CN1c1nc(-c2ncccn2)nc2c1COC2 (stereo not drawn) [Example 92, 4-(1-Ethyl-5,6-dimethoxyisoindolin-2-yl)-2-(pyrimidin-2-yl)-5,7-dihydrofuro[3,4-d]pyrimidine] | 180
CCC1c2cc(OC)c(OC)cc2CN1c1nc(-c2ncccn2)ncc1C1CC1 (stereo not drawn) [Example 61, 2-(5-Cyclopropyl-[2,2′-bipyrimidin]-4-yl)-1-ethyl-5,6-dimethoxyisoindoline] | 14
CCCC1c2ccccc2CCN1c1ccnc(-c2ncccn2)n1 (stereo not drawn) [Example 23, 2-([2,2′-Bipyrimidin]-4-yl)-1-propyl-1,2,3,4-tetrahydroisoquinoline] | 1000
CCC1c2cc(F)c(OC)cc2CN1c1cnc(C(=O)Nc2ccccn2)nc1 (stereo not drawn) [Example 106, 5-(1-Ethyl-6-fluoro-5-methoxyisoindolin-2-yl)-N-(pyridin-2-yl)pyrimidine-2-carboxamide] | 2000
CCC1c2cc(F)c(F)cc2CN1c1ccnc(-c2ncccn2)n1 (stereo not drawn) [Example 48, 2-([2,2′-Bipyrimidin]-4-yl)-1-ethyl-5,6-difluoroisoindoline] | 92
CCC1c2cc(OC)c(F)cc2CN1c1ccnc(-c2ncccn2)n1 (single isomer, unassigned) [Example 77, 2-([2,2′-Bipyrimidin]-4-yl)-1-ethyl-5-fluoro-6-methoxyisoindoline] | 110
CCC1c2cc(F)c(F)cc2CN1c1cnc(C(N)=O)nc1 (stereo not drawn) [Example 119, 5-(1-Ethyl-5,6-difluoroisoindolin-2-yl)pyrimidine-2-carboxamide] | 42000

same assay, conditions: read-out: sAg EC50; HepG2.2.15 cells, supernatant collected at day 6 after exposure, HBsAg CLIA

Structure (SMILES) | EC50 [nM]
CCC1c2cc(F)c(OC)cc2CCN1c1cnc(C(=O)O)nc1 (single isomer, unassigned) [Example 114, 5-(1-Ethyl-7-fluoro-6-methoxy-3,4-dihydro-1H-isoquinolin-2-yl)pyrimidine-2-carboxylic Acid] | 57
CCC1c2cc(F)c(OC)cc2CN1c1nc(-c2ncccn2)ncc1-c1ccccc1 (single isomer, unassigned) [Example 66, 1-Ethyl-6-fluoro-5-methoxy-2-(5-phenyl-[2,2′-bipyrimidin]-4-yl)isoindoline] | 1000
CCC1c2cc(F)c(OC)cc2CN1c1cnc(C(=O)NS(C)(=O)=O)nc1 (single isomer, unassigned) [Example 103, 5-(1-Ethyl-6-fluoro-5-methoxyisoindolin-2-yl)-N-(methylsulfonyl)pyrimidine-2-carboxamide] | 600
CCCC1c2ccc(F)c(F)c2CCN1c1ccnc(-c2ncccn2)n1 (single isomer, unassigned) [Example 130, 2-([2,2′-Bipyrimidin]-4-yl)-5,6-difluoro-1-propyl-1,2,3,4-tetrahydroisoquinoline] | 97
CCC1c2c(OC)ccc(F)c2CCN1c1ccnc(-c2ncccn2)n1 (single isomer, unassigned) [Example 44, 1-Ethyl-5-fluoro-8-methoxy-2-(2-pyrimidin-2-ylpyrimidin-4-yl)-3,4-dihydro-1H-isoquinoline] | 7000
CCC1c2cc(F)c(OC)cc2CN1c1nc(-c2ncccn2)ncc1-c1ccccc1 (single isomer, unassigned) [Example 67, 1-Ethyl-6-fluoro-5-methoxy-2-(5-phenyl-[2,2′-bipyrimidin]-4-yl)isoindoline] | 18000
CCC1c2ccc(F)c(F)c2CCN1c1cnc(-c2ncccn2)nc1 (single isomer, unassigned) [Example 33, 1-Ethyl-5,6-difluoro-2-(2-pyrimidin-2-ylpyrimidin-5-yl)-3,4-dihydro-1H-isoquinoline] | 390
CCC1c2ccccc2CCN1c1cnc(-c2ncccn2)nc1 (single isomer, unassigned) [Example 11, 2-([2,2′-Bipyrimidin]-5-yl)-1-ethyl-1,2,3,4-tetrahydroisoquinoline] | 1400
CCC1c2cc(F)c(OC)cc2CN1c1cnc(-c2ncccn2)nc1 (single isomer, unassigned) [Example 89, 2-([2,2′-Bipyrimidin]-5-yl)-1-ethyl-6-fluoro-5-methoxyisoindoline] | 8
